Results on five molecules are retold here after US5721106A, “In Vitro method for screening β-amyloid deposition” (Regents of the University of Minnesota, priority 1994, dated 1998).

Ends that are not written are not given here.

In assay [1] the test system is ceilan katia yarn (silk). Put plainly: Effect of detergents and zinc on deposition of tracer onto silk. The assay is classed as binding, Bombyx silkworm. Conditions: detergent concentration 0 to 1%.
Assay [2] deals with T1, labelled β-amyloid peptide (Homo sapiens, UniProt P05067).
T1 construct: made in house; host or cells: chemical synthesis (solid-phase Fmoc) or purchased unlabelled peptide (Bachem); radioiodinated in house
T1 sequence (P05067 672-711): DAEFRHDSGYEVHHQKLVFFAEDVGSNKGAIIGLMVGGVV
Put plainly: In vitro aggregation of labelled β-amyloid peptide in the absence of plaques (centrifugation, supernatant counting). Conditions: about 10^-9 M labelled peptide, 50 mM Tricine pH 7.5; SDS at 0.01%. Format: biochemical. Here is the method: A solution of about 10^-9 M labelled β-amyloid peptide in 50 mM Tricine buffer at pH 7.5 was prepared from stock solution of the peptide as described hereinabove in Example 1. The solution was aliquotted into several reaction vessels (polypropylene microcentrifuge tubes) and allowed to stand at room temperature with occasional vortex mixing. At various times, the tubes were centrifuged at 12000 g for 4 minutes, and the fraction of initial (t=0) cpm of labelled peptide remaining in the supernatant fraction determined by removing a small aliquot for counting. The rate of disappearance was dependent on a variety of other conditions which were evaluated using this assay. Thus, the rate of the disappearance depends on peptide concentration (faster at higher peptide concentrations), and on ionic strength (faster at higher salt concentrations). The rate of disappearance was further dependent on the presence of certain detergents such as sodium dodecylsulfate (SDS) (faster in 0.01% SDS; see, FIG. 4), and on the presence of certain organic solvents (slower in the presence of acetonitrile).

The next assay relates to tissue plaques. Nature of the assay: Effect of metal ions, chelating agent and detergents on deposition of labelled peptide on tissue plaques. Format: binding, human. An excerpt:
A deposition-enhancing agent may be added prior to the addition of the deposition-affecting agent to be tested.

The test system of a further assay is adult rat brain. Nature of the assay: Binding of radiolabelled rat β-amyloid peptide to rat brain.
The next assay has as its system AD plaques. Put plainly: Deposition of ^125 I-labelled β-amyloid peptides onto plaques in AD brain tissue (homogenate binding, autoradiography). More on the design: species or system human. How it is done: Fragments labelled in accordance with the method described herein can be combined with amyloid plaque derived from Alzheimer's disease tissue or other amyloid substance such as silk, and tested for activity, for example, their ability to deposit on these materials.
Brain tissue was obtained form normal and Alzheimer's disease patients at 0.5 to 14 hours postmortem, frozen on dry ice after collection, and stored at -20° C. until use. For filter binding studies, tissue homogenates were prepared after the method of H. P. Too and M. R. Hanley, Biochem. J. 252:545 (1988), the disclosure of which is incorporated by reference herein. Tissue was homogenized (Polytron, setting 7-8, 5-10 sec) in 5-10 volumes of 50 mM Tricine (pH 7.5) containing 10% sucrose and protease inhibitors (0.01% bacitracin, 0.002% soybean trypsin inhibitor, 0.0002% chicken egg trypsin inhibitor, 1 mM benzamidine hydrochloride) and pelleted at 10,000 g for 20 minutes. The homogenate was then resuspended and washed several times in Tricine buffer containing 120 mM NaCl, 10 mM EDTA, 300 mM KCl and centrifuged at 40,000 g for 20 minutes and stored at -20° C. for less than two months. Membranes (equivalent to about 30 mg tissue) were resuspended in 0.5 ml 50 mM TrisHCl (pH 7.5) containing 1 mg/ml bovine serum albumin (BSA), 10 mM MnCl2, 0.004% bacitracin, 0.002% chymostatin, 0.004% leupeptin, 0.1% dimethylsulfoxide for 30 minutes prior to addition of the radioligand (10^-11 to 10^-9 M) and various concentrations of unlabelled peptides in the same buffer.
After incubating for two hours at room temperature, the homogenates (final volume 0.575 ml) were filtered through glass fiber filters (Whatman GF/D), presoaked for at least two hours in 1 mg/ml BSA and rinsed with 25 mM Tricine (pH 7.5). After washing twice with 25 mM TrisHCl (pH 7.5) at room temperature, the filters were counted in a gamma counter.
For tissue autoradiography, unfixed tissue was serially sectioned at 5-15 μm and thaw-mounted onto gelatin-coated slices. Slide-mounted sections were stored at -20° C. in closed boxes over desiccant for less than three months before use. Sections were preincubated for 30 minutes and incubated with the radioligand for two hours under the same conditions according to the aforedescribed homogenate binding study. Alternatively, 50 mM TrisHCl rather than Tricine may be used as the buffer. For estimating nonspecific binding, paired serial sections were incubated with the radioligand in the presence of a 10^4 to 10^5 fold excess of the unlabelled peptide. Following incubation with the radioligand, the slides were washed with 50 mM TrisHCl pH 7.5 (four times, two minutes each at 4° C.), then dried at 4° C. and stored in closed boxes over desiccant at room temperature overnight. The fully dried slides were then placed in apposition to tritium-sensitive film alongside iodinated standards. After one week's exposure at -20° C., the film was developed, fixed and washed. […] This approach generated film autoradiograms for quantitative densitometry,a high resolution emulsion autoradiograms for detailed histology, and a counterstained section for identification of cell types from each tissue section.
Briefly peptides were purchased or synthesized by fluorenemethoxycarbonyl chemistry on polystyrene resins, using acid-labile blocking groups for sidechain protection, cleaved with trifluoroacetic acid, and purified by RP-HPLC. […] Autoradiograms were quantitated by densitometry. […] To study the peptide fragments in water we developed a novel approach, measuring NMR data at 750 MHz using a prototype 10 mm ^1 H pulsed field gradient probe. Modified two-dimensional homonuclear TOCSY and NOESY experiments were measured at several pH values and structural information was derived using standard methods.

The test system of assay [3] is ceilan katia yarn (silk). Nature of the assay: Deposition of radiolabelled β-amyloid peptides onto silk. Conditions: in the presence of Triton X-100 (FIG. 5). The assay is classed as binding, Bombyx silkworm.
Protocol: Peptide deposition was conducted and detected as described in Example 2, except that instead of using brain tissue obtained from patients with Alzheimer's disease, silk was used as a template for β-amyloid deposition. The silk specimens were wound about or placed on a glass microscope slide and treated exactly as a piece of Alzheimer's disease (AD) brain tissue was treated in Example 2, using the same solutions, incubations times, etc. Experiments involving AD brain sections and control fabrics, such as nylon and cotton, were conducted in parallel.
Although screens of the many available silks were done at pH 8.5, later experiments were conducted at a preferably lower pH. Silk deposition experiments were done in 96-well plates. Labelled β-amyloid peptide concentration ranged from 20-100 pM, and the amount of silk used per assay ranged 0.5 to 5 mg.
Assay [4] addresses amyloid plaques in Alzheimer's disease brain tissue (homogenates and thin sections). Put plainly: deposition of labelled fragment.
The target in the next assay is silk. Nature of the assay: deposition of radiolabelled peptide onto ceilan katia yarn with Triton X-100.

With `CCCCCCCCCCCCOS(=O)(=O)[O-].[Na+]` [SDS, sodium dodecyl sulfate], in the assay on ceilan katia yarn (silk) [1], the “effect of detergent on rate of deposition (binding) onto silk” value is recorded as “increase binding rate”. Also, the “rate of disappearance of tracer from the supernatant (aggregation)” value in assay [2] was “faster”. Further, in the assay with tissue plaques, the “effect of detergent on deposition of labelled peptide on tissue plaques” value was “enhance deposition”.
Take `CC#N` [acetonitrile]: the “rate of disappearance of tracer from the supernatant (aggregation)” value in assay [2] is given as “slower”.
Consider “Radiolabelled rat β-amyloid peptide^1-40: radiolabelled rat β-amyloid peptide 1-40 (DAEFGHDSGFEVRHQKLVFFAEDVGSNKGAIIGLMVGGVV; also: radiolabelled, label site not given here; UniProt P08592 672-711, looked up)”, for which the “binding to adult rat brain” value with adult rat brain was “failed to bind”. In addition, the “binding to Alzheimer's disease or normal human tissue” value in the assay with AD plaques is recorded as “failed to bind”.
For the molecule “βA(1-40)-NH2: derivatized 40-mer, with a carboxyamide at the C-terminus”, the “deposition of radiolabelled peptide onto ceilan katia yarn (silk)” value in the assay with ceilan katia yarn (silk) [3] was “active”. Besides, the “deposition activity of fragment (active / not active)” value in the assay on AD plaques (labelled fragment combined with AD amyloid plaque or silk, relative to βA(1-40)-OH) is “active”.

B1: βA(26-42)-NH2 (peptide)
peptide: SNKGAIIGLMVGGVVIA-NH2
modifications: also: 125I-labelled after acylation with 4-hydroxyphenylpropionic acid, site not given here
For B1, the fold activity relative to β-amyloid peptide in assay [4] is 3 fold. Moreover, the fold activity relative to βA(1-40)-OH and βA(1-40)-NH2 with silk was determined as 3 times.
